# Earlier results in patent US20040102473A1, “Method of preventing or treating atherosclerosis or restenosis” (priority 2002, published 2004).
# System: CMV
# Details: DHPG prophylaxis, Lemstrom et al., Circulation 1994
smiles,measurement,value
Nc1nc(O)c2ncn(COC(CO)CO)c2n1 [Ganciclovir],prevention of atherosclerosis resulting from CMV infection of rats,prevent atherosclerosis
